Tested on: A498 complex spheroids with HUVEC/MSC, growth
Test: Anticancer human tumor A498 cell line growth inhibition [AhR];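 further: seven day exposure starting three days after spheroid seeding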;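 on viability, T/C: luminescence signal used as a surrogate for viable cells; luminescence viability scaled so 100% equals DMSO vehicle wells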
Conditions: for IC50: curve of first compound; for viability, T/C: stronger effect = lower value
How it was run: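 Spheroids combined tumor cells with HUVEC endothelial cells and human MSCs as stroma. AhR antagonists were paired with standard or investigational drugs, each dosed in half-log steps down from near clinical Cmax, or from 10 microM where Cmax was unknown.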

[1] = second compound 0.1 µM, first compound 0.0316 µM
[2] = second compound 0.1 µM, first compound 0.1 µM
[3] = second compound 0.1 µM, first compound 0.316 µM
[4] = second compound 0.1 µM, first compound 1 µM
[5] = second compound 0.1 µM, first compound 3.16 µM
[6] = second compound 0.1 µM, first compound 10 µM
[7] = second compound 0.316 µM, first compound 0.0316 µM
[8] = second compound 0.316 µM, first compound 0.1 µM
[9] = second compound 0.316 µM, first compound 0.316 µM
[10] = second compound 0.316 µM, first compound 1 µM
[11] = second compound 0.316 µM, first compound 3.16 µM
[12] = second compound 0.316 µM, first compound 10 µM
[13] = second compound 1 µM, first compound 0.0316 µM
[14] = second compound 1 µM, first compound 0.1 µM
[15] = second compound 1 µM, first compound 0.316 µM
[16] = second compound 1 µM, first compound 1 µM
[17] = second compound 1 µM, first compound 3.16 µM
[18] = second compound 1 µM, first compound 10 µM
[19] = second compound 3.16 µM, first compound 0.0316 µM
[20] = second compound 3.16 µM, first compound 0.1 µM
[21] = second compound 3.16 µM, first compound 0.316 µM
[22] = second compound 3.16 µM, first compound 1 µM
[23] = second compound 3.16 µM, first compound 3.16 µM
[24] = second compound 3.16 µM, first compound 10 µM
[25] = second compound 10 µM, first compound 0.0316 µM
[26] = second compound 10 µM, first compound 0.1 µM
[27] = second compound 10 µM, first compound 0.316 µM
[28] = second compound 10 µM, first compound 1 µM
[29] = second compound 10 µM, first compound 3.16 µM
[30] = second compound 10 µM, first compound 10 µM

| Structure (SMILES) | IC50 (second compound 0.1 µM) [µM] | IC50 (second compound 0.316 µM) [µM] | IC50 (second compound 1 µM) [µM] | IC50 (second compound 3.16 µM) [µM] | IC50 (second compound 10 µM) [µM] | viability, T/C [1] [%] | viability, T/C [2] [%] | viability, T/C [3] [%] | viability, T/C [4] [%] | viability, T/C [5] [%] | viability, T/C [6] [%] | viability, T/C [7] [%] | viability, T/C [8] [%] | viability, T/C [9] [%] | viability, T/C [10] [%] | viability, T/C [11] [%] | viability, T/C [12] [%] | viability, T/C [13] [%] | viability, T/C [14] [%] | viability, T/C [15] [%] | further results |
| --- | --- | --- | --- | --- | --- | --- | --- | --- | --- | --- | --- | --- | --- | --- | --- | --- | --- | --- | --- | --- | --- |
| CC1(C)CCC(CN2CCN(c3ccc(C(=O)NS(=O)(=O)c4ccc(NCC5CCOCC5)c([N+](=O)[O-])c4)c(Oc4cnc5[nH]ccc5c4)c3)CC2)=C(c2ccc(Cl)cc2)C1 + Cc1cncc(-c2nc(NCCc3c[nH]c4ccccc34)c3ncn(C(C)C)c3n2)c1 | 5.37 | 5.32 | 5.03 | < 0.0316 | < 0.0316 | 88.5 | 90 | 85.3 | 78.6 | 72.3 | 26 | 89.2 | 92.2 | 95.1 | 78.3 | 71 | 26.6 | 84.7 | 90.3 | 87 | viability, T/C [16]: 73.5%; viability, T/C [17]: 66.9%; viability, T/C [18]: 28.3%; viability, T/C [19]: 43.6%; viability, T/C [20]: 43.4%; viability, T/C [21]: 48.5%; viability, T/C [22]: 40.9%; viability, T/C [23]: 39.6%; viability, T/C [24]: 24.5%; viability, T/C [25]: 2.24%; viability, T/C [26]: 2.27%; viability, T/C [27]: 3.12%; viability, T/C [28]: 4.57%; viability, T/C [29]: 3.12%; viability, T/C [30]: 5.62% |
| CC1COCCN1c1cc(C2(S(C)(=N)=O)CC2)nc(-c2ccnc3[nH]ccc23)n1 (stereo not given) + Cc1cncc(-c2nc(NCCc3c[nH]c4ccccc34)c3ncn(C(C)C)c3n2)c1 | 3.55 | 2.69 | 2.26 | < 0.0316 | < 0.0316 | 97.8 | 98.7 | 90.4 | 81.9 | 52.5 | 23.1 | 94.9 | 102 | 96.3 | 78.5 | 45.7 | 27.5 | 86.8 | 92 | 87.5 | viability, T/C [16]: 68.2%; viability, T/C [17]: 42.9%; viability, T/C [18]: 23.4%; viability, T/C [19]: 37.1%; viability, T/C [20]: 37.2%; viability, T/C [21]: 39.5%; viability, T/C [22]: 35.5%; viability, T/C [23]: 33.9%; viability, T/C [24]: 21.9%; viability, T/C [25]: 4.97%; viability, T/C [26]: 6.89%; viability, T/C [27]: 5.25%; viability, T/C [28]: 5.47%; viability, T/C [29]: 5.09%; viability, T/C [30]: 9.27% |
